Residues, ends and D or L forms follow the SMILES beside them.

For the assay, the system named is E. coli O157:H7. In kind it is cell-based, Escherichia coli. Conditions: screening-stage peptides tested at 1, 6, 12 and 25 μg/mL. The text has this:
In the present invention we used the statistical thermodynamics algorithm TANGO to identify aggregation prone regions (APR) in the proteome of E. coli strain O157:H7. This yielded 3535 sequences of at least 6 amino acids in length and a TANGO score of at least 20%. In order to generate efficient aggregation seeds, we employed a previously devised tandem repeat design ^19, 21, in which the APRs are repeated once and separated by a linker. Given the length limitation on solid phase peptide synthesis with regard to yield and purity, we focused on the 1542 APRs with a length of 7 amino acids. In order to maximize the potential of these peptides to induce aggregation in E. coli, we ranked the APRs by their frequency of occurrence throughout the E. coli proteome, allowing a single amino acid mismatch, and selected the first 75 most frequently occurring sequences from this list (Table 4). In the design pattern, and in order to increase the colloidal stability of these aggregating peptides, the APRs are flanked by aggregation gatekeepers, a class of residues that was previously shown to reduce aggregation kinetics^22-24. […] To generate the tandem we used a single proline residue as a linker between the gatekeeper-flanked APRs. In addition to the 75 peptides generated in this fashion, we added 2 variants of each of the first 25 peptides in the list by randomly mutating one residue in the first APR repeat to arginine to further modulate the aggregation propensity of the peptides (Table 4). All the peptides were generated using solid phase synthesis at 200 nmole scale and dissolved in DMSO to a theoretical stock concentration of 2 mM (assuming 100% synthesis efficiency). Peptide activity on the growth of E. coli O157:H7 was measured at dilutions of the peptide corresponding to concentrations of 1, 6, 12 and 25 μg/mL. […] The Matthews Correlations Coefficient (MCC) with the measured activity was 0.1 at 12 μg/mL and 0.24 at 25 μg/mL.
In the case of `CC(C)C[C@H](NC(=O)[C@H](C)NC(=O)[C@H](CC(C)C)NC(=O)[C@H](CC(C)C)NC(=O)[C@H](CC(C)C)NC(=O)[C@H](CCCNC(=N)N)NC(=O)[C@@H]1CCCN1C(=O)[C@H](CCCNC(=N)N)NC(=O)[C@H](CCCNC(=N)N)NC(=O)[C@H](CO)NC(=O)[C@H](CC(C)C)NC(=O)[C@H](CC(C)C)NC(=O)[C@H](C)NC(=O)[C@H](CC(C)C)NC(=O)[C@H](CC(C)C)NC(=O)[C@H](CC(C)C)NC(=O)[C@@H](N)CCCNC(=N)N)C(=O)N[C@@H](CC(C)C)C(=O)N[C@@H](CO)C(=O)N[C@@H](CCCNC(=N)N)C(=O)N[C@@H](CCCNC(=N)N)C(=O)O` [Peptide P3] (H-RLLLALLSRRPRLLLALLSRR-OH; N-terminus and C-terminus assumed), the “E. coli O157 (apparent MIC in screen)” value was 12 µg/mL.
As for `CC(C)C[C@H](NC(=O)[C@H](C)NC(=O)[C@H](CC(C)C)NC(=O)[C@H](CCCNC(=N)N)NC(=O)[C@@H]1CCCN1C(=O)[C@H](CCCNC(=N)N)NC(=O)[C@H](CCCNC(=N)N)NC(=O)[C@H](CC(C)C)NC(=O)[C@H](CC(C)C)NC(=O)[C@H](CC(C)C)NC(=O)[C@H](C)NC(=O)[C@H](CC(C)C)NC(=O)[C@H](C)NC(=O)[C@H](CC(C)C)NC(=O)[C@@H](N)CCCNC(=N)N)C(=O)N[C@@H](C)C(=O)N[C@@H](CC(C)C)C(=O)N[C@@H](CC(C)C)C(=O)N[C@@H](CC(C)C)C(=O)N[C@@H](CCCNC(=N)N)C(=O)N[C@@H](CCCNC(=N)N)C(=O)O` [Peptide P4] (H-RLALALLLRRPRLALALLLRR-OH; N-terminus and C-terminus assumed), the “E. coli O157 (apparent MIC in screen)” value came to 6 µg/mL.
The same measure for `CC(C)C[C@H](NC(=O)[C@H](C)NC(=O)[C@H](CCCNC(=N)N)NC(=O)[C@@H]1CCCN1C(=O)[C@H](CCCNC(=N)N)NC(=O)[C@H](CCCNC(=N)N)NC(=O)[C@H](CC(C)C)NC(=O)[C@H](CC(C)C)NC(=O)[C@@H](NC(=O)[C@@H](NC(=O)[C@H](CC(C)C)NC(=O)[C@H](CC(C)C)NC(=O)[C@H](C)NC(=O)[C@@H](N)CCCNC(=N)N)[C@@H](C)O)[C@@H](C)O)C(=O)N[C@@H](CC(C)C)C(=O)N[C@H](C(=O)N[C@H](C(=O)N[C@@H](CC(C)C)C(=O)N[C@@H](CC(C)C)C(=O)N[C@@H](CCCNC(=N)N)C(=O)N[C@@H](CCCNC(=N)N)C(=O)O)[C@@H](C)O)[C@@H](C)O` [Peptide P5] (H-RALLTTLLRRPRALLTTLLRR-OH; N-terminus and C-terminus assumed): 12 µg/mL; for `CC(C)C[C@H](NC(=O)[C@H](C)NC(=O)[C@H](CCCNC(=N)N)NC(=O)[C@@H]1CCCN1C(=O)[C@H](CCCNC(=N)N)NC(=O)[C@H](CCCNC(=N)N)NC(=O)[C@H](CC(C)C)NC(=O)[C@H](CC(C)C)NC(=O)[C@H](C)NC(=O)[C@@H](NC(=O)[C@H](C)NC(=O)[C@H](CC(C)C)NC(=O)[C@H](C)NC(=O)[C@@H](N)CCCNC(=N)N)C(C)C)C(=O)N[C@@H](C)C(=O)N[C@H](C(=O)N[C@@H](C)C(=O)N[C@@H](CC(C)C)C(=O)N[C@@H](CC(C)C)C(=O)N[C@@H](CCCNC(=N)N)C(=O)N[C@@H](CCCNC(=N)N)C(=O)O)C(C)C` [Peptide P12] (H-RALAVALLRRPRALAVALLRR-OH; N-terminus and C-terminus assumed): 25 µg/mL; for `CC(C)C[C@H](NC(=O)CNC(=O)[C@H](CCCNC(=N)N)NC(=O)[C@@H]1CCCN1C(=O)[C@H](CCCNC(=N)N)NC(=O)[C@H](CCCNC(=N)N)NC(=O)[C@H](C)NC(=O)[C@H](CC(C)C)NC(=O)[C@H](CC(C)C)NC(=O)[C@H](C)NC(=O)[C@H](CC(C)C)NC(=O)[C@H](CC(C)C)NC(=O)CNC(=O)[C@@H](N)CCCNC(=N)N)C(=O)N[C@@H](CC(C)C)C(=O)N[C@@H](C)C(=O)N[C@@H](CC(C)C)C(=O)N[C@@H](CC(C)C)C(=O)N[C@@H](C)C(=O)N[C@@H](CCCNC(=N)N)C(=O)N[C@@H](CCCNC(=N)N)C(=O)O` [Peptide P14] (H-RGLLALLARRPRGLLALLARR-OH; N-terminus and C-terminus assumed): 12 µg/mL.
Consider `CC(C)C[C@H](NC(=O)[C@H](C)NC(=O)[C@H](CCCNC(=N)N)NC(=O)[C@@H]1CCCN1C(=O)[C@H](CCCNC(=N)N)NC(=O)[C@H](CCCNC(=N)N)NC(=O)[C@H](CC(C)C)NC(=O)[C@@H](NC(=O)[C@H](C)NC(=O)[C@@H](NC(=O)[C@H](CC(C)C)NC(=O)[C@H](CC(C)C)NC(=O)[C@H](C)NC(=O)[C@@H](N)CCCNC(=N)N)[C@@H](C)O)C(C)C)C(=O)N[C@@H](CC(C)C)C(=O)N[C@H](C(=O)N[C@@H](C)C(=O)N[C@H](C(=O)N[C@@H](CC(C)C)C(=O)N[C@@H](CCCNC(=N)N)C(=O)N[C@@H](CCCNC(=N)N)C(=O)O)C(C)C)[C@@H](C)O` [Peptide P16] (H-RALLTAVLRRPRALLTAVLRR-OH; N-terminus and C-terminus assumed), for which the “E. coli O157 (apparent MIC in screen)” value was 25 µg/mL.
`CC(C)C[C@H](NC(=O)[C@H](C)NC(=O)[C@H](CC(C)C)NC(=O)[C@@H](NC(=O)[C@H](C)NC(=O)[C@H](CO)NC(=O)[C@H](CCCNC(=N)N)NC(=O)[C@@H]1CCCN1C(=O)[C@H](CCCNC(=N)N)NC(=O)[C@H](CCCNC(=N)N)NC(=O)[C@H](CC(C)C)NC(=O)[C@H](CC(C)C)NC(=O)[C@H](C)NC(=O)[C@H](CC(C)C)NC(=O)[C@@H](NC(=O)[C@H](C)NC(=O)[C@H](CO)NC(=O)[C@@H](N)CCCNC(=N)N)C(C)C)C(C)C)C(=O)N[C@@H](CC(C)C)C(=O)N[C@@H](CCCNC(=N)N)C(=O)N[C@@H](CCCNC(=N)N)C(=O)O` [Peptide P18] (H-RSAVLALLRRPRSAVLALLRR-OH; N-terminus and C-terminus assumed): the “E. coli O157 (apparent MIC in screen)” value came to 12 µg/mL.
For `CC[C@H](C)[C@H](NC(=O)[C@H](CC(C)C)NC(=O)[C@H](CC(C)C)NC(=O)[C@H](C)NC(=O)[C@H](CCCNC(=N)N)NC(=O)[C@@H]1CCCN1C(=O)[C@H](CCCNC(=N)N)NC(=O)[C@H](CCCNC(=N)N)NC(=O)[C@H](CC(C)C)NC(=O)[C@H](CC(C)C)NC(=O)[C@@H](NC(=O)[C@@H](NC(=O)[C@H](CC(C)C)NC(=O)[C@H](CC(C)C)NC(=O)[C@H](C)NC(=O)[C@@H](N)CCCNC(=N)N)[C@@H](C)CC)[C@@H](C)O)C(=O)N[C@H](C(=O)N[C@@H](CC(C)C)C(=O)N[C@@H](CC(C)C)C(=O)N[C@@H](CCCNC(=N)N)C(=O)N[C@@H](CCCNC(=N)N)C(=O)O)[C@@H](C)O` [Peptide P23] (H-RALLITLLRRPRALLITLLRR-OH; N-terminus and C-terminus assumed) the value was 25 µg/mL; for `CC(C)C[C@H](NC(=O)CNC(=O)[C@@H](NC(=O)[C@H](Cc1ccccc1)NC(=O)[C@H](CC(C)C)NC(=O)[C@H](CCCNC(=N)N)NC(=O)[C@@H]1CCCN1C(=O)[C@H](CCCNC(=N)N)NC(=O)[C@H](CCCNC(=N)N)NC(=O)[C@H](CC(C)C)NC(=O)[C@H](C)NC(=O)[C@H](CC(C)C)NC(=O)CNC(=O)[C@@H](NC(=O)[C@H](Cc1ccccc1)NC(=O)[C@H](CC(C)C)NC(=O)[C@@H](N)CCCNC(=N)N)C(C)C)C(C)C)C(=O)N[C@@H](C)C(=O)N[C@@H](CC(C)C)C(=O)N[C@@H](CCCNC(=N)N)C(=O)N[C@@H](CCCNC(=N)N)C(=O)O` [Peptide P26] (H-RLFVGLALRRPRLFVGLALRR-OH; N-terminus and C-terminus assumed), 25 µg/mL; for `CC(C)C[C@H](NC(=O)[C@H](C)NC(=O)[C@H](CC(C)C)NC(=O)[C@@H](NC(=O)[C@@H](NC(=O)[C@H](C)NC(=O)[C@H](CCCNC(=N)N)NC(=O)[C@@H]1CCCN1C(=O)[C@H](CCCNC(=N)N)NC(=O)[C@H](CCCNC(=N)N)NC(=O)[C@H](CC(C)C)NC(=O)[C@H](CC(C)C)NC(=O)[C@H](C)NC(=O)[C@H](CC(C)C)NC(=O)[C@@H](NC(=O)[C@@H](NC(=O)[C@H](C)NC(=O)[C@@H](N)CCCNC(=N)N)[C@@H](C)O)C(C)C)[C@@H](C)O)C(C)C)C(=O)N[C@@H](CC(C)C)C(=O)N[C@@H](CCCNC(=N)N)C(=O)N[C@@H](CCCNC(=N)N)C(=O)O` [Peptide P29] (H-RATVLALLRRPRATVLALLRR-OH; N-terminus and C-terminus assumed), 25 µg/mL.
The same measure for `CC[C@H](C)[C@H](NC(=O)CNC(=O)[C@H](CC(C)C)NC(=O)[C@H](CCCNC(=N)N)NC(=O)[C@@H]1CCCN1C(=O)[C@H](CCCNC(=N)N)NC(=O)[C@H](CCCNC(=N)N)NC(=O)[C@H](CC(C)C)NC(=O)[C@H](C)NC(=O)[C@@H](NC(=O)[C@H](C)NC(=O)[C@@H](NC(=O)CNC(=O)[C@H](CC(C)C)NC(=O)[C@@H](N)CCCNC(=N)N)[C@@H](C)CC)C(C)C)C(=O)N[C@@H](C)C(=O)N[C@H](C(=O)N[C@@H](C)C(=O)N[C@@H](CC(C)C)C(=O)N[C@@H](CCCNC(=N)N)C(=O)N[C@@H](CCCNC(=N)N)C(=O)O)C(C)C` [Peptide P33] (H-RLGIAVALRRPRLGIAVALRR-OH; N-terminus and C-terminus assumed): 25 µg/mL.

The values are drawn from patent publication US11872262B2, “Means and methods for treating bacterial infections” (VIB VZW, priority 2017, dated 2024).
